Data set [1] can be described thus: Solubility test in water. The class given is physicochemical. The note with it: thermodynamic from solid; deionized water, 37° C. The method, then: Saturated solutions were formulated, filtered and analyzed by HPLC with a sample volume of 1 μL, 3 μL, 5 μL, 10 μL, 15 µL and 20 μL sequentially, and the standard curves of the corresponding compounds were drawn.
[…] of the above compounds were formulated, dissolved by ultrasound for 4 h, and placed on a water bath at 37° C. to stand for 1 h. The resulting unsaturated solutions were centrifuged. 30 μL of supernatants were removed, diluted by adding 200 μL of deionized water, and then filtered.

The nature of data set [2]: Conversion of Compound 23 to Compound 1 in HEPES7.4 solution. It counts as physicochemical. The note with it: HEPES buffer solution, 37° C. The method, then: Formulation of HEPES 7.4 solution: 1.6 g of NaCl, 0.074 g of KCl, 0.027 g of Na2HPO4, 0.2 g of glucose and 1 g of a 4-hydroxyethyl piperazine ethanesulfonic acid (HEPES) solution were placed in 90 mL of distilled water, the pH of which was adjusted to 7.4 with 0.5 M NaOH, and then the volume was adjusted to 100 mL with distilled water.
250 μL of the mouse serum or the HEPES7.4 solution was added into the sample, incubated at 37° C., and sampled at different time points, respectively. 20 μL of samples were taken into EP tubes, into which was added 60 μL of methanol, vortexed to mix well, and centrifuged at 12000 rpm at 4° C. for 10 min. The supernatants were taken at 1 h, 2 h, 4 h, 8 h and 12 h, respectively. The samples were analyzed by HPLC with an injection volume of 10 μL, and the corresponding peak areas were recorded. The chromatographic conditions were as follows: the chromatographic column was Hanbang C18 (4.6×250 mm, 5 um); the mobile phase was acetonitrile: […] of ammonium formate solution =60: 40; the flow rate was 1.0 mL/min; the detection wavelength was 210 nm; and the column temperature was 30° C.

Data set [3] is described as follows: Safety investigation of Compound 23, 30 days in mice. The class given is in vivo, C57BL/6 mice. Particulars: for body weight: in % (unit assumed).
Data set [4] deals with NLRP3 inflammasome. Particulars: read-out: inhibitory activity against the NLRP3 inflammasome activation, EC50; cited from earlier work.

In brackets after ≈: the same amount, converted by molar mass.

The solubility is how much of the substance goes into solution per volume. Read a low solubility as a poorly soluble substance. On to `C=C1C(=O)O[C@@H]2[C@@H]3[C@]4(CC[C@@]3(C)O)C[C@]4(C)CC[C@@H]12` [Compound 1], for which, in data set [1], the concentration in solution (solubility) came to 1140 µg/mL (≈ 4.35 mM).
On to `CN(C)C[C@@H]1C(=O)O[C@H]2[C@H]1CC[C@@]1(C)C[C@]13CC[C@@](C)(O)[C@H]23` [Compound 23], for which the “content of Compound 1 (converted from Compound 23)” value in data set [2] (1 h) was 5.36%; in data set [2] (2 h) it was 11.05%; in data set [2] (4 h), 19.64%; in data set [2] (8 h), 39.29%; in data set [2] (12 h), 55.36%. In addition, the “activities of the mice after each administration” value in data set [3] (500 and 1000 mg/kg) is given as “relatively reduced”. The “time to return to normal after administration” value in data set [3] (500 and 1000 mg/kg) fell in the range of 1 to 2 h. The “mortality” value in data set [3] (500 and 1000 mg/kg, 30 days) is “none of the mice die”. Further, in data set [3] (500 and 1000 mg/kg, female and male mice), the “effect on body weights” value is on record as “no obvious effect on the body weights”. Besides, the body weight in data set [3] (female, 500 mg/kg i.g. daily, Day 1) came to 100.00 ± 0.00; in data set [3] (female, 500 mg/kg i.g. daily, Day 5), 100.41 ± 0.43; in data set [3] (female, 500 mg/kg i.g. daily, Day 10) it was 99.01 ± 1.34; in data set [3] (female, 500 mg/kg i.g. daily, Day 15), 100.03 ± 0.95; in data set [3] (female, 500 mg/kg i.g. daily, Day 20), 100.52 ± 0.74; in data set [3] (female, 500 mg/kg i.g. daily, Day 25), 99.81 ± 1.72. Also, the body weight in data set [3] (female, 500 mg/kg i.g. daily, Day 30) came to 99.79 ± 2.55; in data set [3] (female, 1000 mg/kg i.g. daily, Day 1), 100.00 ± 0.00; in data set [3] (female, 1000 mg/kg i.g. daily, Day 5) it was 101.96 ± 0.55; in data set [3] (female, 1000 mg/kg i.g. daily, Day 10) it was 101.80 ± 2.02; in data set [3] (female, 1000 mg/kg i.g. daily, Day 15), 99.77 ± 2.60; in data set [3] (female, 1000 mg/kg i.g. daily, Day 20), 101.04 ± 2.13. Besides, the body weight in data set [3] (female, 1000 mg/kg i.g. daily, Day 25) came to 99.06 ± 3.56; in data set [3] (female, 1000 mg/kg i.g. daily, Day 30), 100.67 ± 0.91; in data set [3] (male, 500 mg/kg i.g. daily, Day 1), 100.00 ± 0.00; in data set [3] (male, 500 mg/kg i.g. daily, Day 5), 100.31 ± 0.89; in data set [3] (male, 500 mg/kg i.g. daily, Day 10) it was 101.51 ± 4.00; in data set [3] (male, 500 mg/kg i.g. daily, Day 15), 99.27 ± 2.11. Besides, the body weight is 101.29 ± 0.40 in data set [3] (male, 500 mg/kg i.g. daily, Day 20); 98.93 ± 0.60 in data set [3] (male, 500 mg/kg i.g. daily, Day 25); 100.10 ± 1.08 in data set [3] (male, 500 mg/kg i.g. daily, Day 30); 100.00 ± 0.00 in data set [3] (male, 1000 mg/kg i.g. daily, Day 1); 101.48 ± 1.30 in data set [3] (male, 1000 mg/kg i.g. daily, Day 5); 101.22 ± 0.84 in data set [3] (male, 1000 mg/kg i.g. daily, Day 10). Also, the body weight in data set [3] (male, 1000 mg/kg i.g. daily, Day 15) was 100.47 ± 1.28; in data set [3] (male, 1000 mg/kg i.g. daily, Day 20), 100.15 ± 2.76; in data set [3] (male, 1000 mg/kg i.g. daily, Day 25) it was 98.35 ± 1.14; in data set [3] (male, 1000 mg/kg i.g. daily, Day 30), 100.71 ± 0.53.
As usually defined, the EC50 is the concentration needed to bring the measured effect to its halfway point. In the case of `C=C1C(=O)O[C@@H]2[C@H]3C(C)=CC[C@@]34O[C@@]4(C)CC[C@@H]12` [arglabin, reference compound], the EC50 in data set [4] was 10 nM.
